In patent publication US8859611B2, “Thiophene inhibitors of S-nitrosoglutathione reductase” (N30 Pharmaceuticals, Inc., priority 2009, dated 2014):

Each compound was assayed against T1, GSNOR (Homo sapiens, UniProt P11766) (assay: GSNOR assay (in vitro inhibition of GSNOR activity, NADH absorbance at 340 nm)). Settings: 100 mM NaPO4 pH 7.4, 0.240 mM GSNO, 0.300 mM NADH, 0.5 μg/mL GSNO Reductase, 1% DMSO, 25° C.; read-out: IC50 (GSNOR inhibitor activity).
T1 construct: made in house; host or cells: E. coli (arabinose-induced)
T1 sequence (P11766 whole entry): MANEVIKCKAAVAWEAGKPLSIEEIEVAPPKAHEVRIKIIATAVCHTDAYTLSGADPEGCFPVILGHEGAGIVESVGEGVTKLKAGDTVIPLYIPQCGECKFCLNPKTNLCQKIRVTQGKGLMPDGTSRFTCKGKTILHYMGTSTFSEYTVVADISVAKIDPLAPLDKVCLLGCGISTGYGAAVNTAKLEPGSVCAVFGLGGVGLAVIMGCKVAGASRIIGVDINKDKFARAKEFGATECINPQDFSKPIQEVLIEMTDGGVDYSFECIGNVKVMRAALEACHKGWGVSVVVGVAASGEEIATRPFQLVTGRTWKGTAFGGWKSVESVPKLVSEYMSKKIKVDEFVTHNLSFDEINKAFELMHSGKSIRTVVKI
Format: biochemical
Method: Various compounds were tested in vitro for their ability to inhibit GSNOR activity.
GSNOR expression and purification is described in Biochemistry 2000, 39, 10720-10729.
Pre-cultures were grown from stabs of a GSNOR glycerol stock in 2XYT media containing 100 ug/ml ampicillin after an overnight incubation at 37° C. Cells were then added to fresh 2XYT (4 L) containing ampicillin and grown to an OD (A600) of 0.6-0.9 at 37° C. before induction. GSNOR expression was induced with 0.1% arabinose in an overnight incubation at 20° C.
E. coli cell paste was lysed by nitrogen cavitation and the clarified lysate purified by Ni affinity chromatography on an AKTA FPLC (Amersham Pharmacia). The column was eluted in 20 mM Tris pH 8.0/250 mM NaCl with a 0-500 mM imidazole gradient. Eluted GSNOR fractions containing the Smt-GSNOR fusion were digested overnight with Ulp-1 at 4° C. to remove the affinity tag then re-run on the Ni column under the same conditions. GSNOR was recovered in the flowthrough fraction and for crystallography is further purified by Q-Sepharose and Heparin flowthrough chromatography in 20 mM Tris pH 8.0, 1 mM DTT, 10 uM ZnSO4.
GSNO and enzyme/NADH Solutions are made up fresh each day. The solutions are filtered and allowed to warm to room temperature. GSNO solution: 100 mM NaPO4 (pH 7.4), 0.480 mM GSNO. 396 μL of GSNO Solution is added to a cuvette followed by 8 μL of test compound in DMSO (or DMSO only for full reaction control) and mixed with the pipette tip. Compounds to be tested are made up at a stock concentration of 10 mM in 100% DMSO. 2 fold serial dilutions are done in 100% DMSO. 8 μL of each dilution are added to an assay so that the final concentration of DMSO in the assay is 1%. The concentrations of compounds tested range from 100 to 0.003 μM. Enzyme/NADH solution: 100 mM NaPO4 (pH 7.4), 0.600 mM NADH, 1.0 μg/mL GSNO Reductase. 396 μL of the Enzyme/NADH solution is added to the cuvette to start the reaction. The cuvette is placed in the Cary 3E UV/Visible Spectrophotometer and the change in 340 nm absorbance/min at 25° C. is recorded for 3 minutes. The assays are done in triplicate for each compound concentration. IC50's for each compound are calculated using the standard curve analysis in the Enzyme Kinetics Module of SigmaPlot.
Final assay conditions: 100 mM NaPO4, pH 7.4, 0.240 mM GSNO, 0.300 mM NADH, 0.5 μg/mL GSNO Reductase, and 1% DMSO. Final volume: 800 μL/cuvette.

Compound	IC50 [nM]
Cc1cc(C(N)=O)ccc1-c1c(-c2ccc(-n3ccnc3C)s2)csc1CCC(=O)O [Example 11, 3-(4′-(4-carbamoyl-2-methylphenyl)-5-(2-methyl-1H-imidazol-1-yl)-2,3′-bithiophen-5′-yl)propanoic acid]	< 1000
COc1cc(Cl)ccc1-c1csc(CCC(=O)O)c1-c1ccc(C(N)=O)cc1 [Example 2, 3-(3-(4-carbamoylphenyl)-4-(4-chloro-2-methoxyphenyl)thiophen-2-yl)propanoic acid]	< 1000
COc1ccc(-c2csc(CCC(=O)O)c2-c2ccc(C(N)=O)cc2C)cc1 [Example 1, 3-(3-(4-carbamoyl-2-methylphenyl)-4-(4-methoxyphenyl)thiophen-2-yl)propanoic acid]	< 1000
Cc1cc(C(N)=O)ccc1-c1c(-c2ccc(Br)cc2)csc1CCC(=O)O [Example 13, 3-(4-(4-bromophenyl)-3-(4-carbamoyl-2-methylphenyl)thiophen-2-yl)propanoic acid]	< 1000
Cc1nccn1-c1ccc(-c2csc(CCC(=O)O)c2-c2ccc(C(N)=O)cc2)cc1 [Example 8, 3-(3-(4-carbamoylphenyl)-4-(4-(2-methyl-1H-imidazol-1-yl)phenyl)thiophen-2-yl)propanoic acid]	< 1000
Cc1cc(C(N)=O)ccc1-c1c(-c2ccc(-n3ccnc3C)cc2)csc1CCC(=O)O [Example 7, 3-(3-(4-carbamoyl-2-methylphenyl)-4-(4-(2-methyl-1H-imidazol-1-yl)phenyl)thiophen-2-yl)propanoic acid]	< 1000
Cc1cc(NS(C)(=O)=O)ccc1-c1c(-c2ccc(-n3ccnc3C)s2)csc1CCC(=O)O [Example 12, 3-(5-(2-methyl-1H-imidazol-1-yl)-4′-(2-methyl-4-(methylsulfonamido)phenyl)-2,3′-bithiophen-5′-yl)propanoic acid]	< 1000
Cc1cc(NS(C)(=O)=O)ccc1-c1c(-c2ccc(-n3ccnc3C)cc2)csc1CCC(=O)O [Example 9, 3-(4-(4-(2-methyl-1H-imidazol-1-yl)phenyl)-3-(2-methyl-4-(methylsulfonamido)phenyl)thiophen-2-yl)propanoic acid]	< 1000
COc1ccc(-c2scc(CCC(=O)O)c2-c2ccc(C(N)=O)cc2C)cc1 [Example 14, 3-(4-(4-carbamoyl-2-methylphenyl)-5-(4-methoxyphenyl)thiophen-3-yl)propanoic acid]	< 1000
COc1cc(Cl)ccc1-c1csc(CCC(=O)O)c1-c1ccc(O)cc1 [Example 4, 3-(4-(4-chloro-2-methoxyphenyl)-3-(4-hydroxyphenyl)thiophen-2-yl)propanoic acid]	< 1000
